# Assay results taken from patent publication US20160115540A1, “PRODRUGS AND DRUGS” (Biogen MA Inc., priority 2013, published 2016).
# Structures can show the parent of a compound that is named as a salt.
# Test system: kidney
# Test: Transcriptional profiling on Affymetrix GeneChips, single dose, naïve mice: kidney
# Format: in vivo, C57BL/6 mice
# Conditions: kidney; 100MMF-vs-Veh, 12 h
# Protocol: Treated mice were sacrificed at 2, 7, or 12 hours. Tissues (liver, spleen, kidney, jejunum, cortex, hippocampus, striatum and whole blood) were collected and analyzed by transcriptional profiling on mouse Affymetrix GeneChips.
# Tissues (liver, spleen, kidney, jejunum, cortex, hippocampus, striatum and whole blood) were collected and analyzed by transcriptional profiling on mouse Affymetrix GeneChips.
# Animals were exposed to CO2 and whole blood collected via cardiac puncture. Two 100 μl aliquots of whole blood were collected in 1.5 mL microcentrifuge tubes and snap frozen in liquid nitrogen. Peripheral (liver, spleen, kidney and jejunum) and CNS brain (cerebellum, hippocampus, striatum and cortex) tissues were harvested and snap frozen in liquid nitrogen, with special care taken to collect tissues of similar size and from the same location. All samples were stored at −80° C. until RNA extraction was conducted.
# For RNA preparation, frozen tissues were placed in 2 mL RNAse-free 96-well blocks with 1.5 mL QIAzol Lysis Reagent (QIAgen) and a 3.2 mm stainless steel bead (BioSpec Products, Bartlesville, Okla.). Tissues were disrupted for four cycles of 45 seconds in a Mini-Beadbeater (Biospec Products). RNA was extracted in chloroform and the aqueous phase was mixed with an equal volume of 70% ethanol. Extracted RNA was applied to RNeasy 96 plates and purified by the spin method according to the manufacturer's protocol (RNeasy 96 Universal Tissue Protocol, QIAgen, Hilden Germany).
# Automated sample amplifications and biotin labelings were carried out using the NuGEN Ovation RNA Amplification system V2 (Cat #3100), Ovation WB reagent (Cat #1300) and Encore Biotin module (Cat #4200) (NuGEN Technologies, Inc, San Carlos, Calif.) according to manufacturer's recommendations using an Arrayplex automated liquid handler (Beckman Coulter, Indianapolis, Ind.). Two micrograms of biotin labeled sscDNA probe were hybridized to Affymetrix GeneChip Affymetrix HT_MG-430_PM plate arrays with modified conditions as described in Allaire et al. Washing and staining of the hybridized arrays were completed as described in the GeneChip Expression analysis technical manual for HT plate arrays using the Genechip® Array Station (Affymetrix, Santa Clara, Calif.) with modifications as described in Allaire et al. The processed GeneChip® plate arrays were scanned using GeneTitan scanner (Affymetrix, Santa Clara, Calif.).
# Affymetrix scans were subject to quality control (QC) measures. These tests included a visual inspection of the distribution of raw signal intensities and an assessment of RNA degradation, relative log expression (RLE), and normalized unsealed standard error (NUSE). All sample scans that passed these QC metrics were included in the analysis.
# All CEL files were subjected to GC-content-based Robust Multi-array Average (GCRMA) normalization (version 2.20.0) (Irizarry R A, et al. Nucleic Acids Res 2003; 31:e15; Li C, et al. Genome Biol 2001; 2:[…]0032). Expression levels were log (base 2) transformed.
# All calculations and analyses were carried out using R (version 2.11.1) and Bioconductor computational tools (Gentleman R. Springer Science+Business Media 2005).
smiles,measurement,value
"COC(=O)/C=C/C(=O)O [MMF, monomethyl fumarate]",FC 9130221J18Rik (1446368_PM_at),−1.53
same,FC AB099516 /// Higd1c (1447356_PM_at),−1.57
same,FC Abcc3 (1428988_PM_at),1.64
same,FC Abcc4 1443870_PM_at,2.07
same,FC Acot1 (1449065_PM_at),1.59
same,FC Acsm2 (1427224_PM_at),−1.52
same,FC Agps 1434919_PM_at,−1.80
same,FC Akr1b8 (1448894_PM_at),1.68
same,FC Akr1c19 (1455454_PM_at),2.00
same,FC Alas1 1424126_PM_at,2.02
same,FC Alas1 (1455282_PM_x_at),1.70
same,FC Alcam 1426300_PM_at,2.83
same,FC Alcam 1426301_PM_at,2.09
same,FC Alcam 1437467_PM_at,1.93
same,FC Arg2 (1438841_PM_s_at),2.63
same,FC Arhgap26 (1440688_PM_at),−1.57
same,FC Asns 1433966_PM_x_at,2.49
same,FC Asns 1451095_PM_at,2.87
same,FC Atp13a3 1442145_PM_at,1.62
same,FC B4galt5 (1433617_PM_s_at),−1.51
same,FC BC060267 (1441979_PM_at),1.74
same,FC Bcat1 1430111_PM_a_at,−2.07
same,FC Bcat1 1450871_PM_a_at,−2.20
same,FC Bcat1 1455699_PM_at,−2.27
same,FC Blvrb (1451386_PM_at),2.23
same,FC C3 (1423954_PM_at),2.34
same,FC C8a (1428012_PM_at),−1.51
same,FC Cbr1 (1460196_PM_at),2.10
same,FC Cbr3 (1427912_PM_at),7.02
same,FC Cdkn1a (1424638_PM_at),2.73
same,FC Chrdl1 (1456722_PM_at),−1.55
same,FC Cldn1 (1437932_PM_a_at),1.57
same,FC D16Ertd778e 1445089_PM_at,−2.25
same,FC Dcdc2a (1459661_PM_at),1.69
same,FC Dnase2a (1430135_PM_at),2.15
same,FC Dpys (1436291_PM_a_at),1.51
same,FC Endou 1449937_PM_at,1.89
same,FC Ep400 (1449610_PM_at),−1.67
same,FC Esr1 1460591_PM_at,−1.54
same,FC Esr1 (1435663_PM_at),−1.75
same,FC Fga (1424279_PM_at),1.79
same,FC Fgf1 1450869_PM_at,−1.58
same,FC G6pdx (1448354_PM_at),1.70
same,FC Gclc (1455959_PM_s_at),1.64
same,FC Gjb1 1448766_PM_at,1.81
same,FC Gjb1 (1448767_PM_s_at),1.67
same,FC Gm5101 (1442588_PM_at),−1.50
same,FC Gpr135 1441944_PM_s_at,1.59
same,FC Gpr135 1459274_PM_at,1.65
same,FC Gpt (1426502_PM_s_at),1.51
same,FC Gstm1 (1425627_PM_x_at),1.56
same,FC Gstm1 (1448330_PM_at),1.54
same,FC Gstm4 (1424835_PM_at),1.70
same,FC Gstp1 (1449575_PM_a_at),1.54
same,FC Havcr1 1434716_PM_at,4.79
same,FC Hfe 1450702_PM_at,1.67
same,FC Hist1h1c (1438204_PM_at),1.82
same,FC Hist1h2be 1440330_PM_at,2.92
same,FC Hist1h2be (1445565_PM_at),2.48
same,FC Ikbkg 1435646_PM_at,1.76
same,FC Ikbkg 1454690_PM_at,1.54
same,FC Kif20b 1439695_PM_a_at,−2.85
same,FC Klk1b21 (1451607_PM_at),1.57
same,FC Lcp1 1448160_PM_at,1.54
same,FC Lpar2 1442291_PM_at,1.93
same,FC Lrat (1444487_PM_at),1.72
same,FC Maf (1435828_PM_at),1.53
same,FC Maf (1447849_PM_s_at),1.54
same,FC Myo5a (1431320_PM_a_at),−2.35
same,FC Myo5a (1436051_PM_at),−2.04
same,FC Nfia (1446742_PM_at),−1.74
same,FC Nqo1 (1423627_PM_at),2.11
same,FC Pank1 1457110_PM_at,−1.73
same,FC Pank2 1452733_PM_at,−1.97
same,FC Pgd 1423706_PM_a_at,2.27
same,FC Pgd 1438627_PM_x_at,1.83
same,FC Pgd (1436771_PM_x_at),2.03
same,FC Pgd (1437380_PM_x_at),2.05
same,FC Phlda3 (1449002_PM_at),1.81
same,FC Pigl (1440965_PM_at),1.52
same,FC Pir (1429001_PM_at),3.08
same,FC Ptprr (1426047_PM_a_at),1.69
same,FC Rcor3 (1428343_PM_at),−1.51
same,FC Reep6 (1430128_PM_a_at),1.51
same,FC Rnf24 1436101_PM_at,−2.01
same,FC Slc5a3 (1440227_PM_at),−1.50
same,FC Slc8a1 (1437675_PM_at),−1.86
same,FC Slc9a8 1454865_PM_at,−2.40
same,FC Slc22a14 (1440058_PM_at),1.54
same,FC Slc39a8 (1448482_PM_at),−1.55
same,FC Slc48a1 (1450409_PM_a_at),1.53
same,FC Slco2a1 (1444242_PM_at),1.63
same,FC Slco4c1 (1437870_PM_at),−1.69
same,FC Slco4c1 (1460616_PM_at),−2.08
same,FC Smarca2 (1452333_PM_at),−1.60
same,FC Srxn1 (1425351_PM_at),1.89
same,FC Srxn1 (1426875_PM_s_at),1.91
same,FC Srxn1 (1451680_PM_at),2.09
same,FC Tmc5 (1452934_PM_at),1.91
same,FC Tmie (1443964_PM_at),1.65
same,FC Trim16 (1460629_PM_at),1.51
same,FC Txnrd1 (1424487_PM_x_at),1.74
same,FC Vps8 (1434050_PM_at),−1.84
same,FC Vps8 (1454810_PM_s_at),−1.55
